MIC50 data for 43 compounds are collected here from EP2929883A1, “Pyrazole derivatives as dihydroorotate dehydrogenase (DHODH) inhibitors” (INSTITUT PASTEUR, priority 2014, dated 2015).

≈ marks a conversion by molar mass, not a printed value.

The assay concerns measles virus. The experiment in a line: microbe, parasite or virus in culture. The note with it: Measles morbillivirus, 24 h.
The compound `Cc1c(Oc2c(F)cccc2F)c(OC(C)C)nn1-c1ncc(F)cn1` [example 14, 2-(4-(2,6-difluorophenoxy)-3-isopropoxy-5-methyl-1H-pyrazol-1-yl)-5-fluoropyrimidine] returned an MIC50 of 0.05 to 0.5 µM (≈ 0.0182 to 0.182 µg/mL).

As for `CCOc1nn(-c2ncc(CC)cn2)c(C)c1I` [example 106, 2-(3-ethoxy-4-iodo-5-methyl-1H-pyrazol-1-yl)-5-ethylpyrimidine], the MIC50 is over 5 µM.

For the compound `Cc1c(Oc2c(O)cccc2F)c(OC(C)C)nn1-c1ncc(C2CC2)cc1O` [example 188, 5-cyclopropyl-2-(4-(2-fluoro-6-hydroxyphenoxy)-3-isopropoxy-5-methyl-1H-pyrazol-1-yl)pyridin-3-ol], the MIC50 was 0.0005 to 0.05 µM (≈ 0.0002 to 0.02 µg/mL).

In turn, `Cc1c(Cc2ccccc2)c(O)nn1-c1ncc(C2CC2)cn1` [example 136, 4-benzyl-1-(5-cyclopropylpyrimidin-2-yl)-5-methyl-1H-pyrazol-3-ol] showed an MIC50 of 0.5 to 5 µM (≈ 0.153 to 1.53 µg/mL).

As for `CCc1cnc(-n2nc(OCCCN(C)C)c(Cc3ccccc3)c2C)nc1` [example 140, 3-(4-benzyl-1-(5-ethylpyrimidin-2-yl)-5-methyl-1H-pyrazol-3-yloxy)-N,N-dimethylpropan-1-amine], the MIC50 is 0.5 to 5 µM (≈ 0.19 to 1.9 µg/mL).

The compound `Cc1c(Oc2c(F)cccc2F)c(OC(C)C)nn1-c1cnc(C2CC2)cn1` [example 45, 2-cyclopropyl-5-(4-(2,6-difluorophenoxy)-3-isopropoxy-5-methyl-1H-pyrazol-1-yl)pyrazine] came in with an MIC50 of 0.0005 to 0.05 µM (≈ 0.000193 to 0.0193 µg/mL).

`CCCc1cnc(-n2nc(OC(C)C)c(Oc3c(F)cccc3F)c2C)nc1` [example 6, 2-(4-(2,6-difluorophenoxy)-3-isopropoxy-5-methyl-1H-pyrazol-1-yl)-5-propylpyrimidine] registered an MIC50 of 0.0005 to 0.05 µM (≈ 0.000194 to 0.0194 µg/mL).

The compound `CCOc1nn(-c2ccc(C(F)(F)F)cn2)c(C)c1Cc1ccccc1` [example 38, 2-(4-benzyl-3-ethoxy-5-methyl-1H-pyrazol-1-yl)-5-(trifluoromethyl)pyridine] returned an MIC50 of 0.5 to 5 µM (≈ 0.181 to 1.81 µg/mL).

As to `Cc1cnc(-n2nc(OC(C)C)c(Oc3c(F)cccc3F)c2C)nc1` [example 47, 2-(4-(2,6-difluorophenoxy)-3-isopropoxy-5-methyl-1H-pyrazol-1-yl)-5-methylpyrimidine], the MIC50 lay in the range of 0.0005 to 0.05 µM (≈ 0.00018 to 0.018 µg/mL).

In turn, `Cc1c(Oc2c(F)cccc2F)c(OC(C)C)nn1-c1ncc(Br)cn1` [example 58, 5-bromo-2-(4-(2,6-difluorophenoxy)-3-isopropoxy-5-methyl-1H-pyrazol-1-yl)pyrimidine] came in with an MIC50 of 0.0005 to 0.05 µM (≈ 0.000213 to 0.0213 µg/mL).

In the case of `CCc1cnc(-n2nc(OC(C)C)c(Cc3cccc(OC)c3)c2C)nc1` [example 102, 5-ethyl-2-(3-isopropoxy-4-(3-methoxybenzyl)-5-methyl-1H-pyrazol-1-yl)pyrimidine], the MIC50 lay within 0.0005 to 0.05 µM (≈ 0.000183 to 0.0183 µg/mL).

Take `CC(C)Oc1nn(-c2ncc(C3CC3)cn2)c(Cl)c1Oc1ccccc1F` [example 192, 2-(5-chloro-4-(2-fluorophenoxy)-3-isopropoxy-1H-pyrazol-1-yl)-5-cyclopropylpyrimidine]: the MIC50 fell in the range of 0.0005 to 0.05 µM (≈ 0.000194 to 0.0194 µg/mL).

`CCc1cnc(-n2nc(OC(C)C)c(Oc3cccc(F)c3)c2C)nc1` [example 54, 5-ethyl-2-(4-(3-fluorophenoxy)-3-isopropoxy-5-methyl-1H-pyrazol-1-yl)pyrimidine]: the MIC50 lay within 0.05 to 0.5 µM (≈ 0.0178 to 0.178 µg/mL).

For the compound `COc1cc(C2CC2)cnc1-n1nc(OC(C)C)c(Oc2c(F)cccc2F)c1C` [example 189, 5-cyclopropyl-2-(4-(2,6-difluorophenoxy)-3-isopropoxy-5-methyl-1H-pyrazol-1-yl)-3-methoxypyridine], the MIC50 lay within 0.0005 to 0.05 µM (≈ 0.000208 to 0.0208 µg/mL).

`CC(C)Oc1nn(-c2ncc(C3CC3)cn2)cc1Oc1ccccc1` [example 100, 5-cyclopropyl-2-(3-isopropoxy-4-phenoxy-1H-pyrazol-1-yl)pyrimidine] had an MIC50 of 0.05 to 0.5 µM (≈ 0.0168 to 0.168 µg/mL).

Consider `CCOc1nn(-c2ncc(CC)cn2)c(C)c1C(=O)c1ccccc1` [example 150, (3-ethoxy-1-(5-ethylpyrimidin-2-yl)-5-methyl-1H-pyrazol-4-yl)(phenyl)methanone], for which the MIC50 lay within 0.5 to 5 µM (≈ 0.168 to 1.68 µg/mL).

Take `CCOc1nn(-c2ccc(C3CC3)cn2)c(C)c1C(O)c1ccccc1` (stereo not shown) [example 177, (1-(5-cyclopropylpyridin-2-yl)-3-ethoxy-5-methyl-1H-pyrazol-4-yl)(phenyl)methanol]: the MIC50 is 0.0005 to 0.05 µM (≈ 0.000175 to 0.0175 µg/mL).

Regarding `CC(C)Oc1nn(-c2ccc(C3CC3)cn2)c(Cl)c1Oc1ccccc1` [example 191, 2-(5-chloro-3-isopropoxy-4-phenoxy-1H-pyrazol-1-yl)-5-cyclopropylpyridine], the MIC50 lay within 0.05 to 0.5 µM (≈ 0.0185 to 0.185 µg/mL).

The compound `Cc1c(Oc2ccccc2F)c(OC(C)C)nn1-c1ccc(C2CC2)cn1` [example 69, 5-cyclopropyl-2-(4-(2-fluorophenoxy)-3-isopropoxy-5-methyl-1H-pyrazol-1-yl)pyridine] had an MIC50 of 0.0005 to 0.05 µM (≈ 0.000184 to 0.0184 µg/mL).

The compound `CCc1cnc(-n2nc(OC(C)C)c(Cc3ccccc3)c2C)nc1` [example 139, 2-(4-benzyl-3-isopropoxy-5-methyl-1H-pyrazol-1-yl)-5-ethylpyrimidine] returned an MIC50 of 0.0005 to 0.05 µM (≈ 0.000168 to 0.0168 µg/mL).

Regarding `COc1ccc(-n2nc(OC(C)C)c(Oc3c(F)cccc3F)c2C)cn1` [example 130, 5-(4-(2,6-difluorophenoxy)-3-isopropoxy-5-methyl-1H-pyrazol-1-yl)-2-methoxypyridine], the MIC50 lay within 0.5 to 5 µM (≈ 0.188 to 1.88 µg/mL).

The compound `Cc1c(Cc2ccccc2)c(OC(C)C)nn1-c1ccccn1` [example 165, 2-(4-benzyl-3-isopropoxy-5-methyl-1H-pyrazol-1-yl)pyridine] returned an MIC50 of over 5 µM.

`Cc1ccc(-n2nc(OC(C)C)c(Oc3c(F)cccc3F)c2C)nc1` [example 9A, 2-(4-(2,6-difluorophenoxy)-3-isopropoxy-5-methyl-1H-pyrazol-1-yl)-5-methylpyridine] gave an MIC50 of 0.0005 to 0.05 µM (≈ 0.00018 to 0.018 µg/mL).

`CCOc1nn(-c2ncc(CC)c(Cc3ccccc3)n2)cc1I` [example 167, 4-benzyl-2-(3-ethoxy-4-iodo-1H-pyrazol-1-yl)-5-ethylpyrimidine] displayed an MIC50 of 0.5 to 5 µM (≈ 0.217 to 2.17 µg/mL).

Compound `CCc1cnc(-n2nc(OCCO)c(Cc3ccccc3)c2C)nc1` [example 193, 2-(4-benzyl-1-(5-ethylpyrimidin-2-yl)-5-methyl-1H-pyrazol-3-yloxy)ethanol] yielded an MIC50 of 0.05 to 0.5 µM (≈ 0.0169 to 0.169 µg/mL).

`CCc1cnc(-n2nc(OC(C)C)c(Oc3cc(F)ccc3F)c2C)nc1` [example 19, 2-(4-(2,5-difluorophenoxy)-3-isopropoxy-5-methyl-1H-pyrazol-1-yl)-5-ethylpyrimidine] displayed an MIC50 of 0.0005 to 0.05 µM (≈ 0.000187 to 0.0187 µg/mL).

For the compound `Cc1c(Oc2c(F)cccc2F)c(OC(C)C)nn1-c1ccc(Br)cn1` [example 59, 5-bromo-2-(4-(2,6-difluorophenoxy)-3-isopropoxy-5-methyl-1H-pyrazol-1-yl)pyridine], the MIC50 lay within 0.05 to 0.5 µM (≈ 0.0212 to 0.212 µg/mL).

With `Cc1c(Oc2c(F)cccc2F)c(OC(C)C)nn1-c1ncc(C2CC2)cc1N(C)C` [example 190, 5-cyclopropyl-2-(4-(2,6-difluorophenoxy)-3-isopropoxy-5-methyl-1H-pyrazol-1-yl)-N,N-dimethylpyridin-3-amine], the MIC50 was in the range of 0.0005 to 0.05 µM (≈ 0.000214 to 0.0214 µg/mL).

`CC(C)Oc1nn(-c2ncc(C3CC3)cn2)cc1[S+]([O-])c1ccccc1` (stereo not shown) [example 182, 5-cyclopropyl-2-(3-isopropoxy-4-(phenylsulfinyl)-1H-pyrazol-1-yl)pyrimidine] displayed an MIC50 of 0.5 to 5 µM (≈ 0.184 to 1.84 µg/mL).

With `CCOc1nn(-c2ccc(C(C)=O)cn2)c(C)c1Cc1ccccc1` [example 88, 1-(6-(4-benzyl-3-ethoxy-5-methyl-1H-pyrazol-1-yl)pyridin-3-yl)ethanone], the MIC50 was over 5 µM.

The compound `CCOc1nn(-c2ncc(CC)cn2)c(C)c1Oc1cccc(Cl)c1Cl` [example 80, 2-(4-(2,3-dichlorophenoxy)-3-ethoxy-5-methyl-1H-pyrazol-1-yl)-5-ethylpyrimidine] showed an MIC50 of 0.05 to 0.5 µM (≈ 0.0197 to 0.197 µg/mL).

`CCOc1ccn(-c2ncc(CC)cn2)n1` [example 166, 2-(3-ethoxy-1H-pyrazol-1-yl)-5-ethylpyrimidine] yielded an MIC50 of 0.5 to 5 µM (≈ 0.109 to 1.09 µg/mL).

As for `CCOc1nn(-c2ccc(C3CC3)cn2)c(C)c1Oc1ccccc1F` [example 68, 5-cyclopropyl-2-(3-ethoxy-4-(2-fluorophenoxy)-5-methyl-1H-pyrazol-1-yl)pyridine], the MIC50 fell in the range of 0.0005 to 0.05 µM (≈ 0.000177 to 0.0177 µg/mL).

Compound `CCc1cnc(-n2nc(CC(C)C)c(Cc3ccccc3)c2C)nc1` [example 121, 2-(4-benzyl-3-isobutyl-5-methyl-1H-pyrazol-1-yl)-5-ethylpyrimidine] returned an MIC50 of 0.0005 to 0.05 µM (≈ 0.000167 to 0.0167 µg/mL).

The compound `Cc1cc(Br)cnc1-n1nc(OC(C)C)c(Oc2c(F)cccc2F)c1C` [example 85, 5-bromo-2-(4-(2,6-difluorophenoxy)-3-isopropoxy-5-methyl-1H-pyrazol-1-yl)-3-methylpyridine] came in with an MIC50 of 0.5 to 5 µM (≈ 0.219 to 2.19 µg/mL).

`CCOc1nn(-c2ccc(C)cn2)c(C)c1Cc1ccccc1` [example 31, 2-(4-benzyl-3-ethoxy-5-methyl-1H-pyrazol-1-yl)-5-methylpyridine]: the MIC50 is 0.5 to 5 µM (≈ 0.154 to 1.54 µg/mL).

The compound `CCOc1nn(-c2ccc(Br)cn2)c(C)c1Cc1ccccc1` [example 41, 2-(4-benzyl-3-ethoxy-5-methyl-1H-pyrazol-1-yl)-5-bromopyridine] yielded an MIC50 of over 5 µM.

For `CCOc1nn(-c2ccccn2)c(C)c1Cc1ccccc1Cl` [example 162, 2-(4-(2-chlorobenzyl)-3-ethoxy-5-methyl-1H-pyrazol-1-yl)pyridine], the MIC50 is over 5 µM.

In turn, `Cc1c(Oc2c(F)cccc2F)c(OC(C)C)nn1-c1ccc(Cl)nn1` [example 15, 3-chloro-6-(4-(2,6-difluorophenoxy)-3-isopropoxy-5-methyl-1H-pyrazol-1-yl)pyridazine] showed an MIC50 of 0.05 to 0.5 µM (≈ 0.019 to 0.19 µg/mL).

Consider `CCOc1nn(-c2ncc(CC)cn2)c(C)c1Oc1ccccc1C(F)(F)F` [example 82, 2-(3-ethoxy-5-methyl-4-(2-(trifluoromethyl)phenoxy)-1H-pyrazol-1-yl)-5-ethylpyrimidine], for which the MIC50 fell in the range of 0.5 to 5 µM (≈ 0.196 to 1.96 µg/mL).

As to `COc1cc(-c2ccc(C(C)(C)C)cc2)n(-c2ccccn2)n1` [example 146, 2-(5-(4-tert-butylphenyl)-3-methoxy-1H-pyrazol-1-yl)pyridine], the MIC50 was over 5 µM.

As for `Cc1ccc(-n2nc(OC(C)C)c(Oc3c(F)cccc3F)c2C)cn1` [example 128, 5-(4-(2,6-difluorophenoxy)-3-isopropoxy-5-methyl-1H-pyrazol-1-yl)-2-methylpyridine], the MIC50 lay within 0.0005 to 0.05 µM (≈ 0.00018 to 0.018 µg/mL).

In turn, `CCc1ccc(-n2nc(OC(C)C)c(Cc3ccccc3)c2C)cc1` [example 132, 4-benzyl-1-(4-ethylphenyl)-3-isopropoxy-5-methyl-1H-pyrazole] displayed an MIC50 of 0.5 to 5 µM (≈ 0.167 to 1.67 µg/mL).
